In patent US20230348426A1, “OXOPYRROLIDINE FPR2 AGONISTS” (Bristol-Myers Squibb Company, priority 2020, published 2023):

How the values were obtained:
human FPR1 = human FPR1 (Homo sapiens (Human), UniProt P21462); experiment: FPR1 cyclic adenosine monophosphate (cAMP) assay; assay type: cell-based; settings: CHO cells overexpressing human FPR1; forskolin 10 µM; inhibition of cAMP production; read-out: hFPR1 cAMP EC50
How it was run: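 Human FPR1-expressing CHO cells were used at 4,000 per well, with compound at 0.020 nM–100 µM in 1% DMSO. Potency came from a 4-parameter logistic fit.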

human FPR2 = human FPR2 (Homo sapiens (Human), UniProt P25090); experiment: FPR2 cyclic adenosine monophosphate (cAMP) assay; assay type: cell-based; settings: CHO cells overexpressing human FPR2; forskolin 5 µM; inhibition of cAMP production; read-out: hFPR2 cAMP2 EC50
How it was run: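 Inhibition of forskolin-driven (5 µM) cAMP, with 200 µM IBMX, measured in human FPR2-expressing CHO cells, 2,000 per well, 30 min at room temperature; compounds tested 0.020 nM to 100 µM in 1% DMSO. HTRF 665/590 ratio converted to cAMP via calibration curve, then 4-parameter fit.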

Sequence of human FPR2 (P25090 whole entry): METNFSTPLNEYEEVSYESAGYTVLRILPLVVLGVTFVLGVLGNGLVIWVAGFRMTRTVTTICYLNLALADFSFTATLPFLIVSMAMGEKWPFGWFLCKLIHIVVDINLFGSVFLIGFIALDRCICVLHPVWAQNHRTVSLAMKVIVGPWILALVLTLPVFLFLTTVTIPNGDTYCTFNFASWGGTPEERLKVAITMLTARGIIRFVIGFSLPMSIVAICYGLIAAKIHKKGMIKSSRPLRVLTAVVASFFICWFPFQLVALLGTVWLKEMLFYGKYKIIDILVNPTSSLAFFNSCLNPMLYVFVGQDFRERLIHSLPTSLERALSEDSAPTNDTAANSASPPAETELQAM
Sequence of human FPR1 (P21462 whole entry): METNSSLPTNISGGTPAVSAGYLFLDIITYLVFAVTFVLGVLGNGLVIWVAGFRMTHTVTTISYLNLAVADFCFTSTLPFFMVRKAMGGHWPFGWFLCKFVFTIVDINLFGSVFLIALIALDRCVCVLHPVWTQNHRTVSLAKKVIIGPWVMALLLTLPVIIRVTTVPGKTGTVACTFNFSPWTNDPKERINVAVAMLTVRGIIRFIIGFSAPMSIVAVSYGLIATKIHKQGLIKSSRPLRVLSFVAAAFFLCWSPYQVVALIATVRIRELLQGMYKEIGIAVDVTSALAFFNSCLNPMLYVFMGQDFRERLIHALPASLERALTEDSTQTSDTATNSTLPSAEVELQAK

Row | EC50 (human FPR1) | EC50 (human FPR2) | SMILES
1 | 1100 nM | 7 nM | COc1cc(F)c([C@@H]2CN(c3ncccc3F)C(=O)[C@H]2NC(=O)c2ccc(OC(F)(F)F)cc2)c(F)c1 [Example 28]
2 | 5 nM | 0.7 nM | COc1cc(F)c([C@@H]2CN(c3c(C)ccn(CC(O)C(F)(F)F)c3=O)C(=O)[C@H]2NC(=O)c2ccc(OC(F)F)cc2)c(F)c1 (stereo partly drawn) [Example 489]
3 | 6.3 nM | 3.7 nM | COCCn1ccc(C)c(N2C[C@@H](c3ccc(OC)cc3F)[C@H](NC(=O)c3ccc(Cl)cc3)C2=O)c1=O [Example 635]
4 | 10 nM | 4.4 nM | COc1ccc([C@@H]2CN(c3cccn(CC(C)O)c3=O)C(=O)[C@H]2NC(=O)c2ccc(OC(F)F)cc2)cc1 (stereo partly drawn) [Example 434]
5 | 300 nM | 5.7 nM | COc1cc(F)c([C@@H]2CN(c3nccc(N4CCC(C)(O)C4)c3C(F)(F)F)C(=O)[C@H]2NC(=O)c2ccc(Cl)cc2)c(F)c1 (stereo partly drawn) [Example 480]
6 | 59 nM | 4.7 nM | COc1cc(F)c([C@@H]2CN(c3nn(C4COC4)c(=O)cc3C)C(=O)[C@H]2NC(=O)c2ccc(OC(F)F)cc2)c(F)c1 [Example 628]
7 | 62 nM | 5.3 nM | COc1cc(F)c([C@@H]2CN(c3cccnc3OCCN3CC4(COC4)C3)C(=O)[C@H]2NC(=O)c2ccc(OC(F)F)cc2)c(F)c1 [Example 202]
8 | 1800 nM | 2.8 nM | COc1cc(F)c([C@@H]2CN(c3cncn(C(CO)C(F)(F)F)c3=O)C(=O)[C@H]2NC(=O)c2ccc(Cl)cc2)c(F)c1 (stereo partly drawn) [Example 517]
9 | 13 nM | 2.9 nM | COc1ccc([C@@H]2CN(c3cccn(CC(O)C(F)(F)F)c3=O)C(=O)[C@H]2NC(=O)c2ccc(OC(F)F)cc2)c(F)c1 (stereo partly drawn) [Example 465]
10 | 9.1 nM | 8.8 nM | COc1cc(F)c([C@@H]2CN(c3c(C)ccn(CC(O)C(F)(F)F)c3=O)C(=O)[C@H]2NC(=O)c2ccc(OC(F)F)cc2)c(F)c1 (stereo partly drawn) [Example 294]
11 | 65 nM | 2.9 nM | COCCn1cccc(N2C(=O)[C@@H](NC(=O)c3ccc(OC(F)F)cc3)[C@H](c3c(F)cc(OC)cc3F)[C@@H]2C)c1=O [Example 105]
12 | 43 nM | 2.7 nM | CCn1cccc(N2C[C@@H](c3c(F)cc(OC)cc3F)[C@H](NC(=O)c3ccc(Cl)cc3)C2=O)c1=O [Example 98]
